Source: patent US12479847B2 (DANA-FARBER CANCER INSTITUTE, INC., priority 2019, dated 2025)
Read-outs that look alike come from different tables or passages of the source.

Legend:
Experiment in all cases: KINOMEscan (ScanMAX) kinase profiling
Format in all cases: binding
[1] = target: T1, panel of 468 kinases (Homo sapiens, UniProt O14920); conditions: IKK-beta; 1 μM; read-out: % control
T1 construct: purchased KINOMEscan (ScanMAX) service
T1 sequence (O14920 1-756): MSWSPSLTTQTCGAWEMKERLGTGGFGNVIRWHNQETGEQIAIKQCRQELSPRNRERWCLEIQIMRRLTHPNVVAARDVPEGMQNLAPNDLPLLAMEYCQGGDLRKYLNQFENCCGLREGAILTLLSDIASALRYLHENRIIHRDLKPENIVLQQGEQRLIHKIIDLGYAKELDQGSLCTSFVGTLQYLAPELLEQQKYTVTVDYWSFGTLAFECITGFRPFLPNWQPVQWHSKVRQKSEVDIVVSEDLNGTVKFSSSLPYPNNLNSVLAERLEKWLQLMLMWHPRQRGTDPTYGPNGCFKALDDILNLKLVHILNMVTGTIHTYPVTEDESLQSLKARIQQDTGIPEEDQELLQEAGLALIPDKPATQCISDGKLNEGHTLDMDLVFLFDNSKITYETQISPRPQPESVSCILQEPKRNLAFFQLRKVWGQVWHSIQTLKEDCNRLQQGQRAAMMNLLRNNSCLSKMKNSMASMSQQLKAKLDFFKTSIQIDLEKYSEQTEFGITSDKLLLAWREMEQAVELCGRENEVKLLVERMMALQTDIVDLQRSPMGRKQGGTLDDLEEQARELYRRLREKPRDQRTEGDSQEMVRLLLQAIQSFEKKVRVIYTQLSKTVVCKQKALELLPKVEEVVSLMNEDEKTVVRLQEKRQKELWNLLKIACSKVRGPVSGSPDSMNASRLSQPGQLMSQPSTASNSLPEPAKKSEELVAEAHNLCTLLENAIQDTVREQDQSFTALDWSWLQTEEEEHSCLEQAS

[2] = target: T2, panel of 468 kinases (Homo sapiens, UniProt P07333); conditions: 1 μM, read-out: % control
T2 construct: purchased KINOMEscan (ScanMAX) service

[3] = target: T3, panel of 468 kinases (Homo sapiens, UniProt Q14164); conditions: IKK-epsilon; 1 μM; read-out: % control
T3 construct: purchased KINOMEscan (ScanMAX) service
T3 sequence (Q14164 1-716): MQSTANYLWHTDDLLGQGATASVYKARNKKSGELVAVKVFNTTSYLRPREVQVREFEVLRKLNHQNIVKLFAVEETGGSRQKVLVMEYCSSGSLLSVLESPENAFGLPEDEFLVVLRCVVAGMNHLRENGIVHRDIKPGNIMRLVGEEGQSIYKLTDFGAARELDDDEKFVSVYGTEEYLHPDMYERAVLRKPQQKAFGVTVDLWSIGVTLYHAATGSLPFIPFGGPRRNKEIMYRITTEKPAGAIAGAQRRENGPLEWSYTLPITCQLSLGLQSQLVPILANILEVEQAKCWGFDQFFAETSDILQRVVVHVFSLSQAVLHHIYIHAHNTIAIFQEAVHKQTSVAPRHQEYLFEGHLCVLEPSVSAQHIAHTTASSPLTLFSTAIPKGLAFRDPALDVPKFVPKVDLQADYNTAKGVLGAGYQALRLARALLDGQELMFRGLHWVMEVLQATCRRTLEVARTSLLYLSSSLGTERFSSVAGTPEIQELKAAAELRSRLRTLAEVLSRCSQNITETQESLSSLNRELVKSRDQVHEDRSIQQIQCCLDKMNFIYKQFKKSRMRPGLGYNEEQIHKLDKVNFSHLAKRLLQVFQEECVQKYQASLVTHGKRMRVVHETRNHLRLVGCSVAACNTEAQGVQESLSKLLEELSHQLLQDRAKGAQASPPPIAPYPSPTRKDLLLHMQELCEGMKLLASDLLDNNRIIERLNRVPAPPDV

[4] = target: T4, panel of 468 kinases (Homo sapiens, UniProt Q15139); conditions: PRKD1; 1 μM; read-out: % control
T4 construct: purchased KINOMEscan (ScanMAX) service
T4 sequence (Q15139 1-912): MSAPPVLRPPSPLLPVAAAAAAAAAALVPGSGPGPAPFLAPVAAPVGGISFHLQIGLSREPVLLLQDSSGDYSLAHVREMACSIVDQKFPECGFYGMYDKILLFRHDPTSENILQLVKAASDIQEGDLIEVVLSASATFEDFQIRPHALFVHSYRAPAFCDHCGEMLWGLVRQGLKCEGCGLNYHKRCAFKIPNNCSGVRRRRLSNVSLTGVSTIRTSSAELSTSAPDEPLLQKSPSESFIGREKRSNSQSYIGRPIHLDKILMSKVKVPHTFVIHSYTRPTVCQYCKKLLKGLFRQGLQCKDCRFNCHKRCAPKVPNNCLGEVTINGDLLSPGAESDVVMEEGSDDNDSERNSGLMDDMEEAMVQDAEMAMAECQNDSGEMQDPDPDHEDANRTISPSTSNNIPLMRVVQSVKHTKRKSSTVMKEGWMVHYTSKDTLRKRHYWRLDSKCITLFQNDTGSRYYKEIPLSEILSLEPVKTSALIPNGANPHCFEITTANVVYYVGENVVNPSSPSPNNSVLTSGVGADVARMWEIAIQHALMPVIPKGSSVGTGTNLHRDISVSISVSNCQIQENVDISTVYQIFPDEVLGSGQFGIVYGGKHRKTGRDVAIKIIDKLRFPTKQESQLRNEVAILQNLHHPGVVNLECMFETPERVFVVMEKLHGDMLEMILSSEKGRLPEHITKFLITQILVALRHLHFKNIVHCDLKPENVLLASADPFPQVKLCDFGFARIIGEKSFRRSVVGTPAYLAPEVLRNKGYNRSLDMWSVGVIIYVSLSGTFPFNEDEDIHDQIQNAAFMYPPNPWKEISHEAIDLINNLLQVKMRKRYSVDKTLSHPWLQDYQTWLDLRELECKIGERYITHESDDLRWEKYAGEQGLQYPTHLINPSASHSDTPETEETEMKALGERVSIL

[5] = target: T5, panel of 468 kinases (Homo sapiens, UniProt Q16816); conditions: PHKG1; 1 μM; read-out: % control
T5 construct: purchased KINOMEscan (ScanMAX) service

[6] = target: T6, panel of 468 kinases (Homo sapiens, UniProt Q9BVS4); conditions: RIOK2; 1 μM; read-out: % control
T6 construct: purchased KINOMEscan (ScanMAX) service
T6 sequence (Q9BVS4 whole entry): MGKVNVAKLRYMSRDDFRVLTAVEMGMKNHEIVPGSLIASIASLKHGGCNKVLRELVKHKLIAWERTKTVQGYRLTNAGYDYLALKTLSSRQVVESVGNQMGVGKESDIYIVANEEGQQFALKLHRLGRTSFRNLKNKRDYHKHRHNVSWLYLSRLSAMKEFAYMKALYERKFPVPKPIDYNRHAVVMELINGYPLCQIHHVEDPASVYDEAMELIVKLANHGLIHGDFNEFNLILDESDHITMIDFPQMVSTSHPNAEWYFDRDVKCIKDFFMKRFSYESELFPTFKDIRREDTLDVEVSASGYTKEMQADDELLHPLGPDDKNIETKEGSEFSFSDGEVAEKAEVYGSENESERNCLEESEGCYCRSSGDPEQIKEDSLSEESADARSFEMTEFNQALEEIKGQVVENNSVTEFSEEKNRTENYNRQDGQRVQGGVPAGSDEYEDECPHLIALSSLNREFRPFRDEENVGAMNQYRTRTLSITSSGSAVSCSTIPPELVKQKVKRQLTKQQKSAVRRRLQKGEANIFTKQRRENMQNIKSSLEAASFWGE

T2 sequence (P07333 20-972): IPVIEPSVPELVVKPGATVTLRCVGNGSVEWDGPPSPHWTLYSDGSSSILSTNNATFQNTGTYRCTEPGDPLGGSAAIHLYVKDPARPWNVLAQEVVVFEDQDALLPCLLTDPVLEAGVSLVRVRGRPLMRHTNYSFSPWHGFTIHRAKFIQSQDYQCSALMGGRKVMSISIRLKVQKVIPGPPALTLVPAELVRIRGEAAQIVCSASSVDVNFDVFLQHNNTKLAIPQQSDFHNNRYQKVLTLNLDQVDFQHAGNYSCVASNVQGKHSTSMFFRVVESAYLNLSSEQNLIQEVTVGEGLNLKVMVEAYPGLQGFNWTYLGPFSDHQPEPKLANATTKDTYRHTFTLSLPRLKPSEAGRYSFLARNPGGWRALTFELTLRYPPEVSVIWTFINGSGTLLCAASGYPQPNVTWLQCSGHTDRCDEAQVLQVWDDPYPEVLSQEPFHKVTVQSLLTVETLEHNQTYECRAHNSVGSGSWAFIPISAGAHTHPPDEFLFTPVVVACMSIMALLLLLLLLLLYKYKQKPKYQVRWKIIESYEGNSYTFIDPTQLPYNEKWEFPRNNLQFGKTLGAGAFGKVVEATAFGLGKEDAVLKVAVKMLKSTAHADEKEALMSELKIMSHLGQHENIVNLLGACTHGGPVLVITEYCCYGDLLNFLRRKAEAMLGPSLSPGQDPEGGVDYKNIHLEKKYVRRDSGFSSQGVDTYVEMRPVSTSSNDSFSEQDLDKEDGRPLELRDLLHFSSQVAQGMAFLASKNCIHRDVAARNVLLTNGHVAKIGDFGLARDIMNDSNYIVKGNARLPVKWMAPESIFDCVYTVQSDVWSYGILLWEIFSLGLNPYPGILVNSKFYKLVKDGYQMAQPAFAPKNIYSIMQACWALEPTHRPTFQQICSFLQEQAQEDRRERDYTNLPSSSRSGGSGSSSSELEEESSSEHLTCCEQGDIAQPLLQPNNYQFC
T5 sequence (Q16816 whole entry): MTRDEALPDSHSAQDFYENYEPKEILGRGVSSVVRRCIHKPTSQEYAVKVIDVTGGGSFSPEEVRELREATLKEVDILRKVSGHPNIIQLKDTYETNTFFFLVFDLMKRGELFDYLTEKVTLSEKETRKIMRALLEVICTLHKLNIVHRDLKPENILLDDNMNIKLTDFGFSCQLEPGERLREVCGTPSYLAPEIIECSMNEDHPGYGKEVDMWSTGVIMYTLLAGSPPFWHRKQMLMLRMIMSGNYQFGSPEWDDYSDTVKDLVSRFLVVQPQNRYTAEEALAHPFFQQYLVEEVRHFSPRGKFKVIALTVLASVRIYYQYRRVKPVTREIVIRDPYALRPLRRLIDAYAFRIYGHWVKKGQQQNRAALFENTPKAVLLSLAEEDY

Structure (SMILES) | remaining binding at 1 µM [1] | remaining binding at 1 µM ([2]; CSF1R-autoinhibited) | remaining binding at 1 µM ([2]; CSF1R) | remaining binding at 1 µM [3] | remaining binding at 1 µM [4] | remaining binding at 1 µM [5] | remaining binding at 1 µM [6]
CNc1nc(Nc2ccc(S(=O)(=O)N3CCC(N4CCOCC4)CC3)cc2OC)nc2[nH]cc(Cl)c12 [Compound 12, 5-chloro-N2-(2-methoxy-4-((4-morpholinopiperidin-1-yl)sulfonyl)phenyl)-N4-methyl-7H-pyrrolo[2,3-d]pyrimidine-2,4-diamine] | 100% | 100% | 100% | 98% | 8.8% | 25% | 94%
CNc1nc(Nc2ccc(P3(=O)CCN(C4CCOCC4)CC3)cc2OC)nc2[nH]cc(Cl)c12 [Compound 77, 4-(4-((5-chloro-4-(methylamino)-7H-pyrrolo[2,3-d]pyrimidin-2-yl)amino)-3-methoxyphenyl)-1-(tetrahydro-2H-pyran-4-yl)-1,4-azaphosphinane 4-oxide] | 95% | 100% | 100% | 89% | 7% | 8.4% | 78%
CNc1nc(Nc2ccc(C(=O)N3CCC(N4CCOCC4)CC3)c3c2OCO3)nc2[nH]cc(Cl)c12 [Compound 75, (7-((5-chloro-4-(methylamino)-7H-pyrrolo[2,3-d]pyrimidin-2-yl)amino)benzo[d][1,3]dioxol-4-yl)(4-morpholinopiperidin-1-yl)methanone] | 96% | 99% | 98% | 47% | 7.3% | 14% | 53%
